The structures appear in SMILES notation.

The values that follow come from US10155259B2 (Merck Sharp & Dohme B.V., priority 2011, dated 2018).

The target in this test is T1, human FSH receptor (Homo sapiens, UniProt P23945).
T1 construct: expressed in transfected cells; host or cells: CHO cells, stably transfected; cotransfected with CRE-luciferase reporter
T1 sequence (P23945 18-695): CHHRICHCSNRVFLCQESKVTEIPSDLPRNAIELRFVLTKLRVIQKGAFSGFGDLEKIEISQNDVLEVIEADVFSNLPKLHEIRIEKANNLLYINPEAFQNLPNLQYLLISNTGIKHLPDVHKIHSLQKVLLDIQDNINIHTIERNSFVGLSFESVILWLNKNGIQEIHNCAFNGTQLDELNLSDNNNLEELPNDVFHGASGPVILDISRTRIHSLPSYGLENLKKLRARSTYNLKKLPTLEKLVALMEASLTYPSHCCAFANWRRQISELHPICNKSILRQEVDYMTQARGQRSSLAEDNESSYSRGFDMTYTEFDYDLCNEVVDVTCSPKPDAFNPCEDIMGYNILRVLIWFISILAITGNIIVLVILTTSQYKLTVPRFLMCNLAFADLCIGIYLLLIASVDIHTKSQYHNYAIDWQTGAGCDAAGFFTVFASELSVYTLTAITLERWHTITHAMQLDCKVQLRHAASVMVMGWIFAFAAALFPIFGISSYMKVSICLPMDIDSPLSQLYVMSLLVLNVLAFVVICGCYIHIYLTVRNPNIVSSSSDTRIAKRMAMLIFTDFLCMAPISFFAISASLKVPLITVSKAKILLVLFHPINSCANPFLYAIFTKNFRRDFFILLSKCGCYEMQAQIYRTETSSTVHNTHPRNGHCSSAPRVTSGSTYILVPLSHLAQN
The test is described as follows: Antagonistic activity of compounds at the human FSH receptor expressed in CHO cells (CRE-luciferase reporter). The class given is cell-based. Particulars: CHO cells stably transfected with human FSH receptor and CRE/luciferase reporter; together with 49 μM recFSH; 4 hours incubation; 1% DMSO; read-out: IC50 (concentration of test compound causing half-maximal inhibition of the maximally attainable inhibition of the luciferase stimulation). The procedure: Antagonistic Activity of Compounds at the Human FSH Receptor Expressed in CHO Cells
Antagonistic activity of the compounds at the human FSH receptor was determined in Chinese Hamster Ovary (CHO) cells stably transfected with the human FSH receptor and cotransfected with a cAMP responsive element (CRE)/promotor directing the expression of a firefly luciferase reporter gene. Binding of the compounds to the Gs protein-coupled FSH receptor will result in an increase of cAMP, which in turn will induce an increased transactivation of the luciferase reporter. The cells (7,500 cells/well of a 384 well plate) were incubated in Dulbecco' minimal essential F12 modified medium (Invitrogen), supplemented with 1 μg/ml bovine insulin, 5 μg/ml human apo-transferrin, 100 U/ml penicillin G and 100 μg/ml streptomycin with the test compounds (concentration between 0.316 nM and 10.0 μM) in duplicate together with […] (which, at this concentration in the absence of test compound, induces 80% of the maximal luciferase stimulation) in a humidified atmosphere (95%) at 5-7% CO2 and 37° C. The final concentration of DMSO was 1%. After 4 hours of incubation, plates were allowed to adjust to room temperature for 1 hour. Then, SteadyLite (PerkinElmer) solution was added to the wells and cells were allowed to lyse for at least 1 hour at room temperature. Subsequently, luciferase activity was measured in a luminescence counter. The signal is expressed as counts per second (cps). The IC50 (concentration of test compound causing half-maximal (50%) inhibition of the maximally attainable inhibition of the luciferase stimulation by the compound) and efficacy of the compounds were determined using the software program MathIQ (version 2.3, ID Business Solutions Limited).
For orientation: Reporter assays use an easily measured gene product as a stand-in for the process of interest.
As to `COc1cc2c(cc1OC1CCCC1)-c1cc(C(=O)N[C@@H](CO)Cc3c[nH]c4ccccc34)c(-c3cccc(F)c3)n1CC2` [Example 35], the IC50 was less than 100 nM.
As for `COc1cc2c(cc1OC(C)C)-c1cc(C(=O)N[C@@H](CO)Cc3c[nH]c4ccccc34)c(-c3cccc(C)c3)n1CC2` [Example 14, (R)—N-(1-hydroxy-3-(1H-indol-3-yl)propan-2-yl)-9-isopropoxy-8-methoxy-3-m-tolyl-5,6-dihydropyrrolo[2,1-a]isoquinoline-2-carboxamide], the IC50 is less than 100 nM.
With `COc1cc2c(cc1OC(C)C)-c1cc(C(=O)NC(C)(CO)Cc3c[nH]c4ccccc34)c(-c3cccc(F)c3)n1CC2` (stereo not drawn) [Example 2], the IC50 was in the range of 100 to 1000 nM.
For the compound `COc1cc2c(cc1OC(C)C)-c1cc(C(=O)N[C@@H](CO)Cc3c[nH]c4ccccc34)c(C(=O)C(C)(C)C)n1CC2` [Example 25, (R)—N-(1-hydroxy-3-(1H-indol-3-yl)propan-2-yl)-9-isopropoxy-8-methoxy-3-pivaloyl-5,6-dihydropyrrolo[2,1-a]isoquinoline-2-carboxamide], the IC50 is less than 100 nM.
Regarding `COc1cc2c(cc1OCc1ccccc1)-c1cc(C(=O)N[C@@H](CO)Cc3c[nH]c4ccccc34)c(-c3cccc(F)c3)n1CC2` [Example 34, (R)-9-(benzyloxy)-3-(3-fluorophenyl)-N-(1-hydroxy-3-(1H-indol-3-yl)propan-2-yl)-8-methoxy-5,6-dihydropyrrolo[2,1-a]isoquinoline-2-carboxamide], the IC50 is less than 100 nM.
On to `COc1cc2c(cc1OC(C)C)-c1cc(C(=O)N[C@@H](CO)Cc3c[nH]c4ccccc34)c(-c3ccco3)n1CC2` [Example 19, (R)-3-(furan-2-yl)-N-(1-hydroxy-3-(1H-indol-3-yl)propan-2-yl)-9-isopropoxy-8-methoxy-5,6-dihydropyrrolo[2,1-a]isoquinoline-2-carboxamide], for which the IC50 is less than 100 nM.
For the compound `COc1ccc(-c2cc3c(cc2OC)CCn2c-3cc(C(=O)N[C@@H](CO)Cc3c[nH]c4ccccc34)c2-c2cccs2)cn1` [Example 58, (R)—N-(1-hydroxy-3-(1H-indol-3-yl)propan-2-yl)-8-methoxy-9-(6-methoxypyridin-3-yl)-3-(thiophen-2-yl)-5,6-dihydropyrrolo[2,1-a]isoquinoline-2-carboxamide], the IC50 is less than 100 nM.
Turning to `COc1cc2c(c(OC)c1OC)CCn1c-2cc(C(=O)N[C@@H](CO)Cc2c[nH]c3ccccc23)c1-c1cccc(F)c1` [Example 62, (R)-3-(3-fluorophenyl)-N-(1-hydroxy-3-(1H-indol-3-yl)propan-2-yl)-7,8,9-trimethoxy-5,6-dihydropyrrolo[2,1-a]isoquinoline-2-carboxamide], the IC50 is less than 100 nM.
Regarding `COc1cc(-c2cc3c(cc2OC)CCn2c-3cc(C(=O)N[C@@H](CO)Cc3c[nH]c4ccccc34)c2-c2cccs2)ccn1` [Example 57, (R)—N-(1-hydroxy-3-(1H-indol-3-yl)propan-2-yl)-8-methoxy-9-(2-methoxypyridin-4-yl)-3-(thiophen-2-yl)-5,6-dihydropyrrolo[2,1-a]isoquinoline-2-carboxamide], the IC50 was less than 100 nM.
The figure for `CC(C)Oc1cc2c(cc1OC(C)C)-c1cc(C(=O)N[C@@H](CO)Cc3c[nH]c4ccccc34)c(-c3ccccc3)n1CC2` [Example 30, (R)—N-(1-hydroxy-3-(1H-indol-3-yl)propan-2-yl)-8,9-diisopropoxy-3-phenyl-5,6-dihydropyrrolo[2,1-a]isoquinoline-2-carboxamide] is 100 to 1000 nM; for `COc1cc2c(cc1OC)-c1nc(C(=O)N[C@@H](CO)Cc3c[nH]c4ccccc34)c(-c3ccccc3OC)n1CC2` [Example 68, N—((R)-1-hydroxy-3-(1H-indol-3-yl)propan-2-yl)-8,9-dimethoxy-3-(2-methoxyphenyl)-5,6-dihydroimidazo[2,1-a]isoquinoline-2-carboxamide] it is 100 to 1000 nM.
In the case of `COc1ccccc1-c1c(C(=O)N[C@@H](CO)Cc2c[nH]c3ccccc23)nc2n1CCc1cc(OC)c(OC)nc1-2` [Example 70, N—((R)-1-hydroxy-3-(1H-indol-3-yl)propan-2-yl)-8,9-dimethoxy-3-(2-methoxyphenyl)-5,6-dihydroimidazo[1,2-h][1,7]naphthyridine-2-carboxamide], the IC50 was less than 100 nM.
With `COc1cc2c(cc1OC(C)C)-c1cc(C(=O)N[C@@H](CO)Cc3c[nH]c4ccccc34)c(-c3ccc(N)nc3)n1CC2` [Example 15, (R)-3-(6-aminopyridin-3-yl)-N-(1-hydroxy-3-(1H-indol-3-yl)propan-2-yl)-9-isopropoxy-8-methoxy-5,6-dihydropyrrolo[2,1-a]isoquinoline-2-carboxamide], the IC50 fell in the range of 100 to 1000 nM.
The result for `COc1cc2c(cc1OC)-c1nc(C(=O)N[C@@H](CO)Cc3c[nH]c4ccccc34)c(-c3cccc(F)c3)n1CC2` [Example 66, (R)-3-(3-fluorophenyl)-N-(1-hydroxy-3-(1H-indol-3-yl)propan-2-yl)-8,9-dimethoxy-5,6-dihydroimidazo[2,1-a]isoquinoline-2-carboxamide] reads 100 to 1000 nM; that for `CCc1cc2c(cc1OC)CCn1c-2cc(C(=O)N[C@@H](CO)Cc2c[nH]c3ccccc23)c1-c1cccc(F)c1` [Example 43, (R)-9-ethyl-3-(3-fluorophenyl)-N-(1-hydroxy-3-(1H-indol-3-yl)propan-2-yl)-8-methoxy-5,6-dihydropyrrolo[2,1-a]isoquinoline-2-carboxamide], less than 100 nM; that for `COc1cc2c(cc1OC)-c1c(C)c(C(=O)N[C@@H](CO)Cc3c[nH]c4ccccc34)c(-c3ccccc3)n1CC2` [Example 1, (R)—N-(1-hydroxy-3-(1H-indol-3-yl)propan-2-yl)-8,9-dimethoxy-1-methyl-3-phenyl-5,6-dihydropyrrolo[2,1-a]isoquinoline-2-carboxamide], 100 to 1000 nM.
The result for `COc1cc2c(cc1-c1cccnc1OC)-c1cc(C(=O)N[C@@H](CO)Cc3c[nH]c4ccccc34)c(-c3cccc(F)c3)n1CC2` [Example 53, 3-(3-fluorophenyl)-N—((R)-1-hydroxy-3-(1H-indol-3-yl)propan-2-yl)-8-methoxy-9-(2-methoxypyridin-3-yl)-5,6-dihydropyrrolo[2,1-a]isoquinoline-2-carboxamide] reads less than 100 nM.
Regarding `CCCC(=O)c1c(C(=O)N[C@@H](CO)Cc2c[nH]c3ccccc23)cc2n1CCc1cc(OC)c(OC(C)C)cc1-2` [Example 26, (R)-3-butyryl-N-(1-hydroxy-3-(1H-indol-3-yl)propan-2-yl)-9-isopropoxy-8-methoxy-5,6-dihydropyrrolo[2,1-a]isoquinoline-2-carboxamide], the IC50 is less than 100 nM.
The result for `COc1cc2c(cc1-c1cncnc1)-c1cc(C(=O)N[C@@H](CO)Cc3c[nH]c4ccccc34)c(-c3cccc(F)c3)n1CC2` [Example 50, (R)-3-(3-fluorophenyl)-N-(1-hydroxy-3-(1H-indol-3-yl)propan-2-yl)-8-methoxy-9-(pyrimidin-5-yl)-5,6-dihydropyrrolo[2,1-a]isoquinoline-2-carboxamide] reads less than 100 nM; that for `COc1cc2c(cc1C=C(C)C)-c1cc(C(=O)N[C@@H](CO)Cc3c[nH]c4ccccc34)c(-c3cccc(F)c3)n1CC2` [Example 45, (R)-3-(3-fluorophenyl)-N-(1-hydroxy-3-(1H-indol-3-yl)propan-2-yl)-8-methoxy-9-(2-methylprop-1-enyl)-5,6-dihydropyrrolo[2,1-a]isoquinoline-2-carboxamide], less than 100 nM.
The figure for `COc1cc2c(c(OC)c1OC)-c1cc(C(=O)N[C@@H](CO)Cc3c[nH]c4ccccc34)c(-c3cccs3)n1CC2` [Example 64, (R)—N-(1-hydroxy-3-(1H-indol-3-yl)propan-2-yl)-8,9,10-trimethoxy-3-(thiophen-2-yl)-5,6-dihydropyrrolo[2,1-a]isoquinoline-2-carboxamide] is less than 100 nM.
